Data: article PMC6155437 (Molecules : A Journal of Synthetic Chemistry and Natural …, 2017)

Assays:
Assay type in all cases: in vitro ADME
[1] = molecular target: T1, CYP1A2 (Homo sapiens, UniProt P05177); test: CYP1A2 phenacetin O-deethylase inhibition in pooled human liver microsomes (substrate cocktail, LC-MS/MS); details: at 50 µM
T1 construct: pooled human liver microsomes (0.2 mg/mL); tissue Corning Life Sciences; host or cells: pooled human liver microsomes (150 donors)
T1 sequence (P05177 1-516): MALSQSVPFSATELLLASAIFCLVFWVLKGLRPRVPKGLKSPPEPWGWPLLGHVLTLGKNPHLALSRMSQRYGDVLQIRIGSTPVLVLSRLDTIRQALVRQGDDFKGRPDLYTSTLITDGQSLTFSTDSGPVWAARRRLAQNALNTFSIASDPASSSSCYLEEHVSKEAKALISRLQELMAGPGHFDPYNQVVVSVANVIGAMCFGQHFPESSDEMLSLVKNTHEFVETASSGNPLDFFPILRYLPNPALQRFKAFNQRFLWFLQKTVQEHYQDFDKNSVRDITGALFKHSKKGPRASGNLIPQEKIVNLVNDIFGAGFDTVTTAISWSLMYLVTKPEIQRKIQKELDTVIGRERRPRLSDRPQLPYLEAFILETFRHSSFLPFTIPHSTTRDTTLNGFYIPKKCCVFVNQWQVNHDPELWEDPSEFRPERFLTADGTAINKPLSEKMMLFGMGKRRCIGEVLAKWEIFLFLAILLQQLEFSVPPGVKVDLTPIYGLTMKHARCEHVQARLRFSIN
Description: (§1) After a 3-min pre-incubation at 37 °C, the reactions were initiated by addition of NADPH and incubation proceeded for 15 min at 37 °C in a shaking water bath. […] The incubation mixtures were centrifuged (13,000× g, 4 min, 4 °C). All assays were performed in triplicate and mean values were used in calculations.
(§2) Each reaction was initiated by adding the seven-CYP probe substrate cocktail.
(§3) The metabolites formed from CYP substrates were quantified simultaneously by a LC-MS/MS method described previously. The ESI source settings in positive-ion mode for metabolite ionization were: capillary voltage, 4200 V; vaporizer temperature, 350 °C; capillary temperature, 330 °C; sheath gas pressure, 35 psi; and auxiliary gas pressure, 15 psi. […] Analytical data were processed using Xcalibur software (version 2.1, Thermo Scientific).
(§4) The apparent kinetic parameters for inhibitory potential (Ki and kinact values) and inhibition mode were estimated from the fitted curves using the Enzyme Kinetics program (ver. 1.1; Systat Software Inc., San Jose, CA, USA).

[2] = molecular target: T2, CYP2D6 (Homo sapiens, UniProt P10635); test: CYP2D6 bufuralol 1′-hydroxylase inhibition in human liver microsomes; details: at 50 µM
T2 construct: pooled human liver microsomes (0.2 mg/mL); tissue Corning Life Sciences; host or cells: pooled human liver microsomes (150 donors)
Description: as §1, §2, §3, §4

[3] = molecular target: T3, UGT1A9 (Homo sapiens, UniProt O60656); test: UGT1A9 mycophenolic acid glucuronidation inhibition in human liver microsomes; details: at 50 µM
T3 construct: pooled human liver microsomes (0.2 mg/mL), 5 mM UDPGA; tissue Corning Life Sciences; host or cells: pooled human liver microsomes (150 donors)
T3 sequence (O60656 26-530): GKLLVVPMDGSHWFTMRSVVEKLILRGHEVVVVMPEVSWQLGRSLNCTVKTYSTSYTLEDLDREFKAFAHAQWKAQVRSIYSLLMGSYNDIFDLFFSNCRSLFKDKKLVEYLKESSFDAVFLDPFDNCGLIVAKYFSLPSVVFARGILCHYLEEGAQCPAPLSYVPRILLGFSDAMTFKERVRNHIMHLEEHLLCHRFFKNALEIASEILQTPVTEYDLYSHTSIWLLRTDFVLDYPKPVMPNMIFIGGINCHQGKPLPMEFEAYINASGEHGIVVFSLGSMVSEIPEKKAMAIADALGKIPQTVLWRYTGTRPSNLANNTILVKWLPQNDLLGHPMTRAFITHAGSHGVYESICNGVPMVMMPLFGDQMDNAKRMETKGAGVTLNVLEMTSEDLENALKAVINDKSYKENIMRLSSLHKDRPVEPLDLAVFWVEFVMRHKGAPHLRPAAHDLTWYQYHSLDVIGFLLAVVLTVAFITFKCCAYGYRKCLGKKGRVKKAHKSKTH
Description: (§5) After 3 min of pre-incubation at 37 °C, the reactions were initiated by addition of UDPGA; incubation continued for 60 min at 37 °C in a shaking water bath. The reaction was stopped by placing the tubes on ice and adding 50 µL ice-cold acetonitrile containing internal standards (propofol glucuronide for chenodeoxycholic acid 24-acyl-β-glucuronide and mycophenolic acid glucuronide, and meloxicam for SN-38 glucuronide, trifluoperazine glucuronide, N-acetylserotonin β-D-glucuronide, and naloxone 3-β-D-glucuronide). The incubation mixtures were centrifuged (13,000× g, 4 min, 4 °C). All assays were performed in triplicate and average values were used in calculations.
(§6) The metabolites formed from the six UGT cocktail substrates were measured simultaneously using the LC-MS/MS method. The ESI source settings in both positive- and negative-ion modes for metabolite ionization were: capillary voltage, 4200 V; vaporizer temperature, 350 °C; capillary temperature, 330 °C; sheath gas pressure, 35 psi; and auxiliary gas pressure, 15 psi. […] Data were processed using Xcalibur software.
as §4

[4] = molecular target: T4, UGT2B7 (Homo sapiens, UniProt P16662); test: UGT2B7 naloxone 3-β-D-glucuronidation inhibition in human liver microsomes
T4 construct: tissue Corning Life Sciences; host or cells: pooled human liver microsomes (150 donors)
T4 sequence (P16662 24-529): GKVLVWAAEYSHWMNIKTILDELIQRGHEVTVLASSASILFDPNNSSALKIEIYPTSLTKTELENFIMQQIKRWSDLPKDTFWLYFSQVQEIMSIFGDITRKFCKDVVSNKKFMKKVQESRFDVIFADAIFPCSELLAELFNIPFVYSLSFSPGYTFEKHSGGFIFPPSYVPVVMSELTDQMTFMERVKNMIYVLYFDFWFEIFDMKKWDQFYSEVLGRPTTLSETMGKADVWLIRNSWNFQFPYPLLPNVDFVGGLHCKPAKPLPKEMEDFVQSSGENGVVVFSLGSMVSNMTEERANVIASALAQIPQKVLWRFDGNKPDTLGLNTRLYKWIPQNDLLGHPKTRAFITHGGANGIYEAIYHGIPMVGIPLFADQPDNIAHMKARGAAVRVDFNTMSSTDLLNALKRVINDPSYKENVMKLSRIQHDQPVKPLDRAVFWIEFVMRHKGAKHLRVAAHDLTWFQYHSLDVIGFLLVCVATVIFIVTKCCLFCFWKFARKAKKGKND
Description: as §5
The reactions were initiated by addition of UDPGA at 37 °C and stopped after 60 min by placing the incubation tubes on ice and adding 100 μL of ice-cold methanol containing propofol glucuronide (internal standard for UGT1A3) or meloxicam (internal standard for UGT2B7). The incubation mixtures were centrifuged (13,000× g, 4 min, 4 °C), and then, 50 μL of the supernatant was diluted with 50 μL of water. Aliquots (5 μL) of the diluted supernatants were analyzed by LC-MS/MS.
as §6, §4

T2 sequence (P10635 whole entry): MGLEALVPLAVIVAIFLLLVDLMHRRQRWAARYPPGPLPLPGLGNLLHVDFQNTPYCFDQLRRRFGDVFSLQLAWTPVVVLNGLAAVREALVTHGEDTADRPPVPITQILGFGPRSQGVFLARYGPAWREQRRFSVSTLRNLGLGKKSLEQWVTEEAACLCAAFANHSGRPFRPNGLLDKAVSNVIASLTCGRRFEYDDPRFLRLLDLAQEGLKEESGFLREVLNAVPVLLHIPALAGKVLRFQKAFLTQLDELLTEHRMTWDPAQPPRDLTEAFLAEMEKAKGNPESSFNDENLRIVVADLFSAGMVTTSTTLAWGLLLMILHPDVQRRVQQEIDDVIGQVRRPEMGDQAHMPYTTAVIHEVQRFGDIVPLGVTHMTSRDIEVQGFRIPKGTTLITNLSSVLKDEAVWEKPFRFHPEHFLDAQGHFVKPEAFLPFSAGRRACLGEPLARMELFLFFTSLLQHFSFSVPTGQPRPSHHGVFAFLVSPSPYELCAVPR

O=C(c1cccc2ccccc12)c1cn(CCCCCF)c2ccccc12 [AM-2201, 1-(5-fluoropentyl-1H-indol-3-yl)-(naphthalene-1-yl)methanone] was tested, and the “inhibition of CYP1A2-mediated phenacetin O-deethylation” value [1] was “negligibly inhibited”, the “inhibition of CYP2D6-mediated bufuralol 1′-hydroxylation” value [2] was “negligibly inhibited” and the “inhibition of UGT1A9-catalyzed mycophenolic acid glucuronidation” value [3] was “negligibly inhibited”. For the same compound, the Ki [4] was 10 µM, the IC50 ([4]; IC50, UGT2B7-catalyzed naloxone 3-glucuronidation, abstract) was 10 µM and the IC50 ([4]; IC50, UGT2B7 naloxone 3-β-D-glucuronidation, 1 μM naloxone, human liver microsomes) was 14.5 µM. The Inhibition Mode ([4]; UGT2B7 naloxone 3-β-D-glucuronidation) was “mixed inhibition”.
